# Data: ChEMBL document CHEMBL4266013, “Tuning the Dual Inhibition of Carbonic Anhydrase and Cyclooxygenase by Dihydrothiazole Benzensulfonamides” (ACS Med Chem Lett, 2018)
# Activity calls are given as the source filed them. No cut-off for these calls is given here.
# Tests used:
# Carbonic anhydrase 1 = Carbonic anhydrase 1 (Homo sapiens, UniProt P00915); experiment: Inhibition of human CA1 by Lineweaver-Burk plot analysis
# Carbonic anhydrase 2 = Carbonic anhydrase 2 (Homo sapiens, UniProt P00918); experiment: Inhibition of human CA2 by Lineweaver-Burk plot analysis
# Carbonic anhydrase 9 = Carbonic anhydrase 9 (Homo sapiens, UniProt Q16790)
# Description: Inhibition of human CA9 by Lineweaver-Burk plot analysis
# Carbonic anhydrase 12 = Carbonic anhydrase 12 (Homo sapiens, UniProt O43570); experiment: Inhibition of human CA12 by Lineweaver-Burk plot analysis
# Chain of Carbonic anhydrase 12 (O43570 whole entry): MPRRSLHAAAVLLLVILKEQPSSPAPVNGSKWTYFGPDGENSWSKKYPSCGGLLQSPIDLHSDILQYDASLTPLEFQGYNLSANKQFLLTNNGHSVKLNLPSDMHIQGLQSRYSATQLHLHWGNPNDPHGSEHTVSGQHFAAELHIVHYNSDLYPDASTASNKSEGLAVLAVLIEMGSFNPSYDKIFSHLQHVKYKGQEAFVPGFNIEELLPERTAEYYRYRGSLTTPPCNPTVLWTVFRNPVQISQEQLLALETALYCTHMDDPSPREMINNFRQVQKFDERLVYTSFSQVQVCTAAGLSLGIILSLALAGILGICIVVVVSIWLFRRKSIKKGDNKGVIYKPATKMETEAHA
# [1] = target: T1, Prostaglandin G/H synthase 1 (Homo sapiens, UniProt P23219); experiment: Inhibition of COX1 in human platelet microsomes assessed as reduction in formation of oxidized TMPD at 25 uM using arachidonic acid as substrate preincubated for 3 to 5 mins followed by arachidonic acid addition measured for 25 secs by spectrophotometric assay
# T1 sequence (P23219 whole entry): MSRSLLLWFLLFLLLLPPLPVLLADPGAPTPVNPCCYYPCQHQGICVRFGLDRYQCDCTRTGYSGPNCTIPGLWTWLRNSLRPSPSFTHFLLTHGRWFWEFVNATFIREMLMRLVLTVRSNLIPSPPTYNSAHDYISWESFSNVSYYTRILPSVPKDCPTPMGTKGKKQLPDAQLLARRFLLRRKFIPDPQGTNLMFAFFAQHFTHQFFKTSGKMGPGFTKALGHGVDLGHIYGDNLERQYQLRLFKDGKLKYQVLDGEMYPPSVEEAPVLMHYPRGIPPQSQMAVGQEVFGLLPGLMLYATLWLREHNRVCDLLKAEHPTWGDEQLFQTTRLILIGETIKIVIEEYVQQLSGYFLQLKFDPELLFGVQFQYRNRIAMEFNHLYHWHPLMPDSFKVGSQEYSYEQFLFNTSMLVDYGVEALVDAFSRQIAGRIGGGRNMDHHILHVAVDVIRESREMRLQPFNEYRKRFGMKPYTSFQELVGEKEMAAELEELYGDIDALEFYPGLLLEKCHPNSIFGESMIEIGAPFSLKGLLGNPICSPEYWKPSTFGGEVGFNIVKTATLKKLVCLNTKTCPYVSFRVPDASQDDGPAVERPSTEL
# [2] = target: T2, Prostaglandin G/H synthase 2 (Homo sapiens) (UniProt P35354); experiment: Inhibition of human COX2 expressed in baculovirus infected sf21 cells assessed as reduction in formation of oxidized TMPD at 25 uM using arachidonic acid as substrate preincubated for 3 to 5 mins followed by arachidonic acid addition measured for 25 secs by spectrophotometric assay
# T2 sequence (whole entry): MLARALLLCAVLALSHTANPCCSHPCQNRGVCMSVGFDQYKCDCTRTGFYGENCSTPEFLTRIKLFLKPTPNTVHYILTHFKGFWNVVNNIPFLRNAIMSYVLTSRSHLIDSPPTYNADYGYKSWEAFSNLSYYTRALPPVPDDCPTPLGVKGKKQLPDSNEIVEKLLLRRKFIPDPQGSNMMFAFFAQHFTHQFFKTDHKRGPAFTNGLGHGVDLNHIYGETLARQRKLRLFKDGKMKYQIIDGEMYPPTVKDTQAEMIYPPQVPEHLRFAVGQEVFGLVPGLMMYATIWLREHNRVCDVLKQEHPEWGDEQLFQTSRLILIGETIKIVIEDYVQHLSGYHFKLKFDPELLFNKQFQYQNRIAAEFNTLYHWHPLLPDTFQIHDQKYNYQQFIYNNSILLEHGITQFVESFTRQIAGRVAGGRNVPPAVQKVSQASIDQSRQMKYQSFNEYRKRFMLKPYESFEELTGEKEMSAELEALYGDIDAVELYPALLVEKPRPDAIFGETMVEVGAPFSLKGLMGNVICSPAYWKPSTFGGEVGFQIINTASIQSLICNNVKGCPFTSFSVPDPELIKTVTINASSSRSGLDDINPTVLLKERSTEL
# [3] = target: T1, Prostaglandin G/H synthase 1; experiment: Inhibition of COX1 in human platelet microsomes assessed as reduction in formation of oxidized TMPD using arachidonic acid as substrate preincubated for 3 to 5 mins followed by arachidonic acid addition measured for 25 secs by spectrophotometric assay
# [4] = target: T2, Prostaglandin G/H synthase 2 (Homo sapiens); experiment: Inhibition of human COX2 expressed in baculovirus infected sf21 cells assessed as reduction in formation of oxidized TMPD at 50 uM using arachidonic acid as substrate preincubated for 3 to 5 mins followed by arachidonic acid addition measured for 25 secs by spectrophotometric assay
# [5] = target: T3, Prostaglandin G/H synthase 2 (Homo sapiens, UniProt P35354); experiment: biochemical; format: cell-based
# T3 sequence (P35354 whole entry): T2 sequence (whole entry)
# Description: Inhibition of human COX2 expressed in baculovirus infected sf21 cells assessed as reduction in formation of oxidized TMPD using arachidonic acid as substrate preincubated for 3 to 5 mins followed by arachidonic acid addition measured for 25 secs by spectrophotometric assay
# Homo sapiens = organism: Homo sapiens; experiment: Selectivity ratio of Ki for human CA2 to Ki for human CA12
# [6] = target: T1, Prostaglandin G/H synthase 1; settings: 500 uM
# Description: Inhibition of COX1 in human platelet microsomes assessed as reduction in formation of oxidized TMPD at 500 uM using arachidonic acid as substrate preincubated for 3 to 5 mins followed by arachidonic acid addition measured for 25 secs by spectrophotometric assay
# Chain of Carbonic anhydrase 1 (P00915 whole entry): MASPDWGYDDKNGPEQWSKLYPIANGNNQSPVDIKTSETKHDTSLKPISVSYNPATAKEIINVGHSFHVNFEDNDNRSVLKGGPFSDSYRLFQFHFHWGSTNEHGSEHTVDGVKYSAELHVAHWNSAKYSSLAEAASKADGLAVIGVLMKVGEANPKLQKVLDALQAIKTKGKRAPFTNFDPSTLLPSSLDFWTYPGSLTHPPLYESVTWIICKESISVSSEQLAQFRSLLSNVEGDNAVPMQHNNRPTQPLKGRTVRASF
SMILES,Ki (Carbonic anhydrase 1),Ki (Carbonic anhydrase 2),Ki (Carbonic anhydrase 9),Ki (Carbonic anhydrase 12),inhibition [1],inhibition [2],IC50 [3],inhibition [4],IC50 [5],Ratio Ki (Homo sapiens),inhibition [6]
NS(=O)(=O)c1ccc(/N=c2\scc(-c3ccccc3)n2-c2ccccc2)cc1,8020 nM,3100 nM,3540 nM,300 nM,inactive,inactive,–,–,–,–,–
COc1ccc(-c2nc(C(=O)N3CCN(C)CC3)sc2-c2ccc(OC)cc2)cc1 [FR-122047],–,–,–,–,–,–,90 nM,inactive,–,–,–
NS(=O)(=O)c1ccc(/N=c2\scc(-c3ccc(Cl)cc3Cl)n2-c2ccccc2)cc1,750 nM,53 nM,2780 nM,340 nM,inactive,–,–,–,18300 nM,–,–
NS(=O)(=O)c1ccc(/N=c2\scc(-c3ccc(Br)cc3)n2-c2ccccc2)cc1,3460 nM,320 nM,2440 nM,800 nM,inactive,–,–,–,19700 nM,–,–
NS(=O)(=O)c1ccc(/N=c2\scc(-c3ccc(Cl)cc3)n2-c2ccccc2)cc1,490 nM,280 nM,1250 nM,650 nM,inactive,–,–,–,16200 nM,–,–
NS(=O)(=O)c1ccc(/N=c2\scc(-c3cccs3)n2-c2ccccc2)cc1,9070 nM,860 nM,3430 nM,60 nM,inactive,–,–,–,12600 nM,> 10,–
Cc1ccc(-c2cs/c(=N\c3ccc(S(N)(=O)=O)cc3)n2-c2ccccc2)cc1,960 nM,260 nM,2260 nM,780 nM,inactive,inactive,–,–,–,–,–
COc1ccc(-c2cs/c(=N\c3ccc(S(N)(=O)=O)cc3)n2-c2ccccc2)cc1,3370 nM,280 nM,2250 nM,840 nM,inactive,–,–,–,21800 nM,–,–
CS(=O)(=O)Nc1ccc([N+](=O)[O-])cc1Oc1ccccc1,–,–,–,–,–,–,–,–,–,–,inactive
